Data from PubChem BioAssay (NCI).
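These data come from cells grown in 96-well plates and exposed to compound for 48 hours at five concentrations. Definition used: TGI = concentration required for complete inhibition of growth.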

Columns and labels:
Assay in all cases: NCI-60 cell line screen, 48 h
DU-145 prostate = system: DU-145 prostate
SF-295 CNS = system: SF-295 CNS
MDA-MB-435 = system: MDA-MB-435
786-0 renal = system: 786-0 renal
OVCAR-8 ovarian = system: OVCAR-8 ovarian
MALME-3M melanoma = system: MALME-3M melanoma
NCI/ADR-RES ovarian = system: NCI/ADR-RES ovarian
RXF 393 renal = system: RXF 393 renal
SK-MEL-5 melanoma = system: SK-MEL-5 melanoma
HL-60(TB) leukemia = system: HL-60(TB) leukemia
SF-539 CNS = system: SF-539 CNS
NCI-H226 lung = system: NCI-H226 lung

Compound | TGI (DU-145 prostate) | TGI (SF-295 CNS) | TGI (MDA-MB-435) | TGI (786-0 renal) | TGI (OVCAR-8 ovarian) | TGI (MALME-3M melanoma) | TGI (NCI/ADR-RES ovarian) | TGI (RXF 393 renal) | TGI (SK-MEL-5 melanoma) | TGI (HL-60(TB) leukemia) | TGI (SF-539 CNS) | TGI (NCI-H226 lung)
CCOC(=O)N/N=C(/N)c1cccc([N+](=O)[O-])c1 | > 100 µM | > 100 µM | > 100 µM | > 100 µM | > 100 µM | > 100 µM | > 100 µM | > 100 µM | > 100 µM | > 100 µM | > 100 µM | –
N=C(N)c1ccc(C(NC(=O)CNS(=O)(=O)c2ccc3ccccc3c2)P(=O)(Oc2ccccc2)Oc2ccccc2)cc1 (stereo not given) | > 100 µM | – | > 100 µM | > 100 µM | > 100 µM | > 100 µM | > 100 µM | > 100 µM | > 100 µM | > 100 µM | 71.3 µM | 38.8 µM
COC[C@@H](C[C@H]1O[C@@](O)([C@H](O)[C@@H]2C[C@H](OC)[C@@H](O)CC/C=C(C)/C=C/[C@@H](O[C@@H]3O[C@@H](C)[C@H](OC)[C@@H](O)[C@@H]3O)[C@H](C)/C=C(C)/C=C(C)/C=C(\C)C(=O)O2)[C@H](C)[C@@H](O)[C@H]1C)O[C@H]1C[C@](C)(O)[C@@H](O[C@H]2C[C@@H](OC)[C@H](O)[C@@H](C)O2)C(C)O1 (stereo not given in full) | > 100 µM | > 100 µM | > 100 µM | > 100 µM | > 100 µM | > 55.5 µM | > 100 µM | > 100 µM | > 100 µM | > 100 µM | > 100 µM | > 100 µM
O=C1C(CN2CCCCC2)CCC1CN1CCCCC1 (stereo not given) | > 100 µM | > 46.4 µM | 51.8 µM | 41.7 µM | > 68.9 µM | 49 µM | 64.2 µM | 28.3 µM | > 69.3 µM | – | 56.1 µM | > 100 µM
CC(=O)OCC12C(=O)C[C@@H](C)C3(CC(c4ccoc4)OC3=O)C1CCC(OC(C)=O)C21CO1 (stereo not given in full) | > 100 µM | > 100 µM | > 100 µM | > 100 µM | > 100 µM | > 100 µM | > 100 µM | > 100 µM | > 100 µM | > 100 µM | > 100 µM | > 100 µM
O=C(c1ccc(N=Cc2ccccc2O)cc1)c1ccc(N=Cc2ccccc2O)cc1 | > 100 µM | > 100 µM | > 100 µM | > 100 µM | – | > 100 µM | > 100 µM | > 100 µM | > 100 µM | > 100 µM | > 100 µM | > 100 µM
COc1cc(CNCc2cc(OC)c(OC)c(OC)c2)cc(OC)c1OC | > 10 µM | > 10 µM | > 10 µM | > 10 µM | > 10 µM | > 10 µM | > 10 µM | > 10 µM | > 10 µM | > 6.74 µM | > 10 µM | > 10 µM
C(=Nc1ccc(-c2nc3ccccc3[nH]2)cc1)c1cccs1 | > 100 µM | > 100 µM | > 100 µM | > 100 µM | > 100 µM | > 100 µM | > 100 µM | > 100 µM | > 100 µM | > 100 µM | > 100 µM | > 100 µM
NC(N)=NCCC[C@H](N)C(=O)NCC(=O)N[C@@H](CC(=O)O)c1ncc(NC(=O)C(F)(F)F)o1 | > 25 µM | > 25 µM | > 25 µM | > 25 µM | > 25 µM | > 25 µM | > 25 µM | > 25 µM | > 25 µM | > 25 µM | > 25 µM | > 25 µM
C[N+](C)(C)CC1CCCCCCCCCCC1=O (stereo not given) | > 100 µM | > 100 µM | > 100 µM | > 100 µM | > 100 µM | > 100 µM | > 100 µM | > 100 µM | > 100 µM | > 100 µM | > 100 µM | > 100 µM
c1ccc2c(c1)ccn2CCc1c[nH]c2ccccc12 | > 10 µM | > 10 µM | > 10 µM | > 10 µM | > 10 µM | > 10 µM | > 10 µM | > 10 µM | > 10 µM | > 10 µM | > 10 µM | > 10 µM
COc1ccc(C(=C(Cl)c2ccccc2)c2ccc(OC)cc2)cc1 | > 100 µM | > 100 µM | > 100 µM | > 100 µM | > 100 µM | > 100 µM | > 100 µM | > 100 µM | > 100 µM | > 100 µM | > 100 µM | > 100 µM
Nc1cc2[nH]c(=O)c(=O)[nH]c2cc1N | > 100 µM | > 100 µM | > 100 µM | > 100 µM | > 100 µM | > 100 µM | > 100 µM | > 100 µM | > 100 µM | > 100 µM | > 100 µM | > 100 µM
Cc1ccc([N+](=O)[O-])cc1S(=O)(=O)Nc1ccc(C2=NNC(c3ccccc3)C2)cc1 (stereo not given) | 92 µM | 21.7 µM | 44.6 µM | 74.1 µM | > 100 µM | 46 µM | 92.2 µM | 30.4 µM | 30.9 µM | 54.2 µM | 89.2 µM | > 100 µM
C=CC(CCc1ccc(C(=O)OCC)cc1)c1c(N)nc(N)[nH]c1=O (stereo not given) | > 100 µM | > 100 µM | > 100 µM | > 100 µM | > 100 µM | > 100 µM | > 100 µM | > 100 µM | > 100 µM | > 100 µM | > 100 µM | > 100 µM
O=C1CC(=Nc2ccc(Cl)cc2)C(c2ccccc2)N1c1ccccc1 (stereo not given) | 53 µM | > 100 µM | 6.32 µM | > 100 µM | – | 90.8 µM | 95.8 µM | > 100 µM | 22.8 µM | 21.3 µM | 94.8 µM | 85.7 µM
COC(CNC(=O)C(C)NC(=O)CCc1ccccc1)OC (stereo not given) | > 100 µM | > 100 µM | > 100 µM | > 100 µM | > 100 µM | > 100 µM | > 100 µM | > 100 µM | > 100 µM | > 100 µM | > 100 µM | > 100 µM
CCCCN1C(=O)N(c2ccc(OCC)cc2)C2N(CCCC)C1C(C)(C)C2(C)C (stereo not given) | > 100 µM | > 100 µM | 97.3 µM | > 100 µM | > 100 µM | 73.1 µM | 77.6 µM | 39.1 µM | 67.7 µM | – | 41.9 µM | 49.3 µM
